Measured values: PubChem BioAssay (NCI)
Values joined by “and” are separate entries in the source; they are usually repeats but may differ in a detail not shown here. Identical values can stand only once.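 Results reflect a 48-hour exposure of cells in 96-well plates to compound at five concentrations. GI50 is the concentration that inhibits growth by half. TGI marks complete inhibition of growth.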 Where a SMILES comes first, the peptide text is derived from it. [ ]: non-standard residue; d: D form. The star is where a group is joined. ξ: configuration not given here. ξF = NC(Cc1ccccc1)C(=O)O; Cbz = O=C(OCc1ccccc1)*; Aib = CC(C)(N)C(=O)O

What was measured:
Test in all cases: growth of human tumour cells (NCI), 48 h
UO-31 renal = tested on: UO-31 renal
786-0 renal = tested on: 786-0 renal
SN12K1 renal = tested on: SN12K1 renal
M14 melanoma = tested on: M14 melanoma
CAKI-1 renal = tested on: CAKI-1 renal
NCI-H522 lung = tested on: NCI-H522 lung
K-562 leukemia = tested on: K-562 leukemia
T-47D breast = tested on: T-47D breast
SW-620 colon = tested on: SW-620 colon
SK-MEL-28 melanoma = tested on: SK-MEL-28 melanoma

SMILES: CCN(CC)CC[n+]1ccc2c(C)c3[nH]c4ccc(O)cc4c3c(C)c2c1
- GI50 (UO-31 renal): 20.6 µM
- TGI (UO-31 renal): > 96.1 µM and 150 µM
- TGI (786-0 renal): > 40.7 µM
- GI50 (SN12K1 renal): 0.748 µM
- TGI (SN12K1 renal): 11.9 µM and 16.6 µM
- TGI (M14 melanoma): 34.9 µM
- GI50 (CAKI-1 renal): 3.41 µM
- TGI (CAKI-1 renal): 49.6 µM and 16.3 µM
- GI50 (NCI-H522 lung): 1.56 µM
- TGI (NCI-H522 lung): 10.7 µM and 8.66 µM
- TGI (K-562 leukemia): 42.5 µM and 40.2 µM
- TGI (T-47D breast): 12.3 µM
- TGI (SW-620 colon): 93.1 µM and 88.3 µM
- GI50 (SK-MEL-28 melanoma): 9.07 µM
- TGI (SK-MEL-28 melanoma): 21.3 µM and 44.8 µM

SMILES: Nc1[nH]c(=S)nc2nc3c(c(-c4ccccc4)c12)CCCC3
- TGI (UO-31 renal): > 100 µM
- TGI (M14 melanoma): > 100 µM
- TGI (CAKI-1 renal): > 100 µM
- TGI (K-562 leukemia): > 100 µM
- TGI (T-47D breast): > 100 µM
- TGI (SW-620 colon): > 100 µM

SMILES: CCCCCCCCCCCCCC1=C(O)C(=O)C(CC2=C(O)C(=O)C(CCCCCCCCCCCCC)=C(O)C2=O)=C(O)C1=O
- TGI (UO-31 renal): > 100 µM
- TGI (786-0 renal): > 100 µM
- TGI (M14 melanoma): > 100 µM
- TGI (CAKI-1 renal): > 100 µM
- TGI (NCI-H522 lung): > 100 µM
- TGI (K-562 leukemia): > 100 µM
- TGI (T-47D breast): > 100 µM
- TGI (SW-620 colon): > 100 µM
- TGI (SK-MEL-28 melanoma): > 100 µM

SMILES: CN(C)CCNC(=O)c1cc(Cl)cc2cc3ccccc3nc12
- TGI (UO-31 renal): 4.12 µM
- TGI (SN12K1 renal): 3.34 µM
- TGI (SW-620 colon): 7.02 µM
- TGI (SK-MEL-28 melanoma): 3.76 µM

SMILES: Cc1[nH]c(=O)[nH]c(=O)c1/C=C/C(=O)NC(CO)CS(=O)CS(C)=O (stereo unspecified)
- TGI (UO-31 renal): 130 µM
- TGI (SN12K1 renal): 64.8 µM
- TGI (CAKI-1 renal): 13.3 µM
- TGI (NCI-H522 lung): 32.3 µM
- TGI (K-562 leukemia): 135 µM
- TGI (SW-620 colon): 409 µM
- TGI (SK-MEL-28 melanoma): 69.8 µM

SMILES: CCOC(=O)CCC(C(=O)OCC)n1nc2ccc(Nc3c(C)[n+]([O-])c4cc(F)c(OCC)cc4[n+]3[O-])cc2n1 (stereo unspecified)
- TGI (UO-31 renal): > 100 µM
- TGI (786-0 renal): 71.5 µM
- TGI (M14 melanoma): > 100 µM
- TGI (CAKI-1 renal): > 100 µM
- TGI (NCI-H522 lung): > 100 µM
- TGI (K-562 leukemia): > 100 µM
- TGI (T-47D breast): > 100 µM
- TGI (SW-620 colon): > 100 µM

SMILES: COc1cc(/C=C2\N=C(c3ccccc3)N(c3ccc(C(=O)c4ccccc4)cc3N3C(=O)/C(=C/c4ccc(O)c(OC)c4)N=C3c3ccccc3)C2=O)ccc1O
- TGI (UO-31 renal): 27.6 µM
- TGI (786-0 renal): 61.2 µM
- TGI (M14 melanoma): 25.1 µM
- TGI (CAKI-1 renal): 71 µM
- TGI (K-562 leukemia): 53 µM
- TGI (T-47D breast): 27.3 µM
- TGI (SW-620 colon): > 100 µM
- TGI (SK-MEL-28 melanoma): 72.6 µM

SMILES: CCCCCCCCCCCCCCCCCCNc1ccn(C2OC(CO)C(OP(=O)(O)OCC(O)COP(=O)(O)OCC3OC(n4cc(F)c(NCCCCCCCCCCCCCCCCCC)nc4=O)CC3O)C2O)c(=O)n1 (stereo unspecified)
- TGI (UO-31 renal): > 50 µM
- TGI (786-0 renal): > 50 µM
- TGI (M14 melanoma): > 50 µM
- TGI (CAKI-1 renal): > 50 µM
- TGI (NCI-H522 lung): > 50 µM
- TGI (K-562 leukemia): > 50 µM
- TGI (T-47D breast): > 50 µM
- TGI (SW-620 colon): > 50 µM
- TGI (SK-MEL-28 melanoma): > 50 µM

SMILES: CCOC(=O)CNC(=O)C(Cc1ccccc1)NC(=O)C(C)(C)NC(=O)OCc1ccccc1 (stereo unspecified) (Cbz-[Aib]-[ξF]-Gly-OEt)
- TGI (UO-31 renal): > 100 µM
- TGI (M14 melanoma): > 100 µM
- TGI (CAKI-1 renal): > 100 µM
- TGI (NCI-H522 lung): > 100 µM
- TGI (K-562 leukemia): > 100 µM
- TGI (T-47D breast): > 100 µM
- TGI (SW-620 colon): > 100 µM
- TGI (SK-MEL-28 melanoma): 33.2 µM

SMILES: CCCCN1C(=O)c2c(Br)sc(Br)c2C1=O
- TGI (UO-31 renal): > 100 µM
- TGI (786-0 renal): > 100 µM
- TGI (M14 melanoma): > 100 µM
- TGI (CAKI-1 renal): > 100 µM
- TGI (NCI-H522 lung): > 100 µM
- TGI (K-562 leukemia): > 100 µM
- TGI (T-47D breast): > 100 µM
- TGI (SW-620 colon): 66.2 µM
- TGI (SK-MEL-28 melanoma): > 100 µM

SMILES: CC(C)(C)c1ccc2c(c1)C#Cc1cc(C(C)(C)C)ccc1OCCCO2
- TGI (UO-31 renal): > 100 µM
- TGI (786-0 renal): > 100 µM
- TGI (M14 melanoma): > 100 µM
- TGI (CAKI-1 renal): > 100 µM
- TGI (NCI-H522 lung): > 100 µM
- TGI (K-562 leukemia): > 100 µM
- TGI (T-47D breast): > 100 µM
- TGI (SW-620 colon): > 100 µM
- TGI (SK-MEL-28 melanoma): > 100 µM

SMILES: OCC(O)CNc1ncnc2ccccc12 (stereo unspecified)
- TGI (UO-31 renal): > 100 µM
- TGI (786-0 renal): > 100 µM
- TGI (M14 melanoma): > 100 µM
- TGI (CAKI-1 renal): > 100 µM
- TGI (NCI-H522 lung): > 100 µM
- TGI (K-562 leukemia): > 100 µM
- TGI (T-47D breast): > 100 µM
- TGI (SW-620 colon): > 100 µM
- TGI (SK-MEL-28 melanoma): > 100 µM

SMILES: COC(=O)C1=C(C)N2CCSC2(C)C(C(=O)OC)C1c1cccc(Cl)c1 (stereo unspecified)
- TGI (UO-31 renal): 38.3 µM
- TGI (M14 melanoma): 89.3 µM
- TGI (CAKI-1 renal): 70 µM
- TGI (K-562 leukemia): > 100 µM
- TGI (SW-620 colon): > 100 µM
- TGI (SK-MEL-28 melanoma): 46.9 µM

SMILES: O=C(CSCC(=O)N/N=C/c1ccccc1)N/N=C\c1ccccc1
- TGI (UO-31 renal): > 100 µM
- TGI (786-0 renal): > 100 µM
- TGI (M14 melanoma): > 100 µM
- TGI (CAKI-1 renal): > 100 µM
- TGI (NCI-H522 lung): > 100 µM
- TGI (K-562 leukemia): > 100 µM
- TGI (T-47D breast): > 100 µM
- TGI (SW-620 colon): > 100 µM
- TGI (SK-MEL-28 melanoma): > 100 µM

SMILES: N#CC1=C2SCCN2C(=O)C(C#N)C12CCCCC2 (stereo unspecified)
- TGI (UO-31 renal): > 100 µM
- TGI (786-0 renal): > 100 µM
- TGI (M14 melanoma): > 100 µM
- TGI (CAKI-1 renal): > 100 µM
- TGI (NCI-H522 lung): > 100 µM
- TGI (K-562 leukemia): > 100 µM
- TGI (T-47D breast): > 100 µM
- TGI (SW-620 colon): > 100 µM
- TGI (SK-MEL-28 melanoma): > 100 µM

SMILES: C=C1C(=O)O[C@@H]2/C=C(\C)CC/C=C(\C)CC[C@@]12O
- TGI (UO-31 renal): 2.86 µM
- TGI (786-0 renal): 2.71 µM
- TGI (M14 melanoma): 10.5 µM
- TGI (CAKI-1 renal): 2.79 µM
- TGI (NCI-H522 lung): 1.38 µM
- TGI (K-562 leukemia): 12.6 µM
- TGI (T-47D breast): 3.33 µM
- TGI (SW-620 colon): 3.46 µM
- TGI (SK-MEL-28 melanoma): 13.3 µM

SMILES: Cc1cc2c(c(O)c1-c1c(C)cc(O)c3c1C(=O)C=CC3=O)C(=O)C=CC2=O
- TGI (UO-31 renal): 3.44 µM
- TGI (M14 melanoma): > 100 µM
- TGI (CAKI-1 renal): 1.48 µM
- TGI (K-562 leukemia): 0.23 µM
- TGI (T-47D breast): 3.67 µM

SMILES: O=C(Oc1c(Cl)cc(C2(c3cc(Cl)c(OC(=O)c4ccccc4)c(Cl)c3)CCCCC2)cc1Cl)c1ccccc1
- TGI (UO-31 renal): 35.3 µM
- TGI (786-0 renal): 27.5 µM
- TGI (M14 melanoma): 30.3 µM
- TGI (CAKI-1 renal): 18.5 µM
- TGI (NCI-H522 lung): 29.3 µM
- TGI (K-562 leukemia): 31 µM
- TGI (T-47D breast): 37.2 µM
- TGI (SW-620 colon): 39.5 µM
- TGI (SK-MEL-28 melanoma): 29.3 µM

SMILES: S=c1c2[nH]cnc2ncn1CCSC1=NC=NC2=NC=NC21 (stereo unspecified)
- TGI (UO-31 renal): > 100 µM
- TGI (786-0 renal): > 100 µM
- TGI (M14 melanoma): > 100 µM
- TGI (CAKI-1 renal): > 100 µM
- TGI (NCI-H522 lung): > 100 µM
- TGI (K-562 leukemia): > 100 µM
- TGI (T-47D breast): > 100 µM
- TGI (SW-620 colon): > 100 µM
- TGI (SK-MEL-28 melanoma): > 100 µM

SMILES: CNC1Cc2c[nH]c3cccc(c23)C12C=C(C)C(=O)O2 (stereo unspecified)
- TGI (UO-31 renal): > 100 µM
- TGI (786-0 renal): > 100 µM
- TGI (M14 melanoma): > 100 µM
- TGI (CAKI-1 renal): > 100 µM
- TGI (NCI-H522 lung): > 100 µM
- TGI (K-562 leukemia): > 100 µM
- TGI (T-47D breast): > 100 µM
- TGI (SW-620 colon): > 100 µM
- TGI (SK-MEL-28 melanoma): > 100 µM
